Measured values reported in paper PMC6005460, “Discovery of a novel potent peptide agonist to adiponectin receptor 1” (PLoS ONE, 2018).
In brackets after ≈: the same amount, converted by molar mass. Where a SMILES comes first, the peptide text is derived from it. Where no end group is shown, it is not given here. [ ]: non-standard residue; d: D form. Nva = CCC[C@H](N)C(=O)O

What was measured:
AdipoR1-Δ88 = target: T1, AdipoR1-Δ88 (Homo sapiens, UniProt Q96A54); assay: Surface plasmon resonance binding to immobilized AdipoR1-Δ88; settings: for SPR screening of designed peptides, selection: Biacore T-200, selected versus ADP355 by concentration-dependent signal increase, dissociation rate and estimated Kd, 25 candidate peptides
T1 construct: made in house; host or cells: Sf9 insect cells (Bac-to-Bac baculovirus)
T1 sequence (Q96A54 89-375 limits assumed): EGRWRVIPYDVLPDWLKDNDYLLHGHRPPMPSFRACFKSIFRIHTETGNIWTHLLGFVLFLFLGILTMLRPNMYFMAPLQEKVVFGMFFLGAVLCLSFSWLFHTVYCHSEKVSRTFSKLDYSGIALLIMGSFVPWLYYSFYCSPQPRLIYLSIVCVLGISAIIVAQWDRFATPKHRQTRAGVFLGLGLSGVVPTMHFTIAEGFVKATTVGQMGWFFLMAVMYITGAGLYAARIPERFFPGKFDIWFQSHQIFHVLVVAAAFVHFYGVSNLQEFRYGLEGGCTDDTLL
Protocol: DNA gene fragment encoding AdipoR1 fused to an N-terminal flag tag was synthesized after codon optimization for insect cell expression (Integrated DNA Technologies). Full length AdipoR1 and AdipoR1-Δ88 were expressed in SF9 cell line using Bac-to-Bac Baculovirus system and purified following the procedure described by T. Tanabe et. al.. Briefly, 1 L SF9 cells infected with amplified baculovirus were cultured in SF-900 III SFM media (Thermo Fisher Scientific) for 3 days at 27°C. Harvested cells were disrupted by dounce homogenization, followed by centrifugation at 30,000 rpm for 2 hours. Collected raw membrane were washed with HEPES buffer and stored in -80°C after flash-freezing. Membranes were solubilized with 1% DDM (Anatrace) and recombinant AdipoR1-Δ88 was purified by using anti-flag tag antibody magnetic beads (Sigma). Eluted AdipoR1-Δ88 by flag peptide (Sigma) was further purified in 20 mM HEPES (pH7.4), 150 mM NaCl, 10% glycerol, 0.025% DDM, and 0.0001% CHS by Superdex 200 (GE Healthcare). The amount of purified AdipoR1-Δ88 was estimated by using Bradford staining.
In order to screen peptide library against AdipoR1, purified AdipoR1-Δ88 was immobilized onto S-series CM5 chip (GE Healthcare Life Science). Since AdipoR1-Δ88 was solubilized with a detergent-containing buffer solution, pH scouting solutions with various pH from 3.5 to 5.5 were prepared with the same detergent solution, 0.025% DDM and 0.0001% cholesteryl-hemi-succinate (CHS, Anatrace). At pH 5, AdipoR1-Δ88 was immobilized at around 4000 response unit using amine coupling method though EDC/NHS. After enough stabilization with running buffer consisting of 20 mM HEPES (pH7.4), 150 mM NaCl, 10% glycerol, 0.025% DDM, and 0.0001% CHS, serial concentrations from 1 to 100 μM were injected into reference and sample cells with 60-second contact time, 200-second dissociation time, and 30 μl/min flow rate at 4°C. The resulting sensorgrams were double-blanked by reference cell and buffer injection.

Solubility of peptides = format: physicochemical
[1] = tested on: acetyl Co-A carboxylase (ACC) phosphorylation in differentiated C2C12 myotubes; assay: ACC phosphorylation in differentiated C2C12 myotubes (Western blot); format: cell-based, Mouse; settings: PEGylated BHD1028, Western blot, in words
Protocol: (§1) Mouse C2C12 myoblasts (American Type Culture Collection) were maintained in Dulbecco’s modified Eagle’s medium (DMEM) supplemented with 10% FBS. C2C12 myotube was obtained by culturing myoblasts in DMEM containing 2% horse serum for at least 5 days with daily media change. On the fifth day, differentiation of cells could be confirmed by multinucleated contracted myotubes. C2C12 myotubes were then treated with selected peptide candidates at indicated concentrations for 30 minutes. As a positive control, 2 μg/ml recombinant human globular adiponectin and indicated concentrations of ADP355 were used.
(§2) Cell lysates were subjected to SDS-PAGE and western blot analysis. Briefly, cells were lysed with protein lysis buffer (RIPA, Thermo) followed by heat denaturation. Five micrograms of whole cell proteins were applied to SDS-PAGE. After electrophoresis, the proteins were transferred onto PVDF membrane, followed by membrane blocking in TBS-T buffer containing 5% non-fat dry milk for 1 hour at room temperature. The membrane was probed with the following different primary antibodies: anti-phosphorylated-AMPK (Thr172) (Cell Signaling), anti-tAMPK (Cell Signaling), anti-pACC, and anti-GAPDH (Santa-Cruz). […] Signals from Western blot were quantified by using Image Lab Software 6.0 (Bio-Rad).

[2] = tested on: AdipoR1-mediated AMPK activation (pAMPK Thr172) in differentiated C2C12 myotubes; assay: AMPK activation in differentiated C2C12 myotubes (Western blot); format: cell-based, Mouse; settings: differentiated C2C12 myotubes, 0.8, 4 and 20 μM, in words
Protocol: as §1, §2

AdipoRs = settings: previous studies; cited from earlier work
[3] = target: T2, AdipoR1-Δ88 (adiponectin receptor 1 lacking the N-terminal 88 residues) (human, UniProt Q96A54 89-375); assay: SPR; AdipoR1-Δ88 immobilised on CM5 chip by amine coupling at pH 5 (around 4000 RU); peptides 1 to 100 μM injected, 60 s contact, 200 s dissociation, 30 μl/min, 4°C; 20 mM HEPES pH 7.4, 150 mM NaCl, 10% glycerol, 0.025% DDM, 0.0001% CHS; Kd from saturation curves of responses at equilibrium; settings: both partners purified
T2 construct: Adiponectin receptor 1 (AdipoR1), human; N-terminal 88 residues deleted; gene synthesised, codon-optimised for insect cells; Kept in 0.025% DDM and 0.0001% CHS; The functional rows were done on mouse C2C12 or human HepG2 cells with their own AdipoR1; m1 stands there for AdipoR1; also called AdipR1-Δ88; source: SF9 cells (Bac-to-Bac baculovirus), solubilised with 1% DDM, purified (anti-flag …)
T2 sequence (looked up): T1 sequence (Q96A54 89-375 limits assumed)

Question: What does the source list for `CC[C@H](C)[C@H](NC(=O)[C@H](CC(N)=O)NC(=O)[C@@H]1CCCN1C(=O)[C@H](Cc1c[nH]cn1)NC(=O)[C@H](Cc1ccc(O)cc1)NC(=O)[C@H](C)NC(=O)[C@H](Cc1ccccc1)NC(=O)[C@H](Cc1ccc(O)cc1)NC(=O)[C@@H](N)Cc1ccc(O)cc1)C(=O)N1CCC[C@H]1C(=O)NCC(=O)N[C@@H](CC(C)C)C(=O)N[C@@H](Cc1ccc(O)cc1)C(=O)N[C@@H](Cc1ccc(O)cc1)C(=O)N[C@@H](Cc1ccccc1)C(=O)O` [BHD1028] (H-YYFAYHPNIPGLYYF-OH)?
Answer: SPR screening of designed peptides, selection (AdipoR1-Δ88): preliminarily selected; dissociation in the SPR sensorgram (AdipoR1-Δ88; among screened peptides, in words): slowest dissociation; solubility in DMSO (Solubility of peptides; DMSO): 100 mM (≈ 193 mg/mL); solubility (Solubility of peptides; aqueous buffer, PBS buffer pH 7.4, unmodified peptide): ≤ 0.05 mM

Question: With “PEGylated BHD1028: BHD1028 N-terminally mono-PEGylated with 5000 Da polyethylene glycol ({PEG 5000 Da}-YYFAYHPNIPGLYYF)” as the molecule, how does the “ACC activation, concentration dependence” value [1] read?
Answer: concentration dependent

Question: What about the “solubility after PEGylation” value (Solubility of peptides; modified with 5000 Da of PEG, in words) of the same molecule?
Answer: much enhanced solubility

Question: Which “SPR screening of designed peptides, selection” value (AdipoR1-Δ88) does the source give for `CC[C@H](C)[C@H](NC(=O)[C@H](CC(N)=O)NC(=O)[C@@H]1CCCN1C(=O)[C@H](Cc1c[nH]cn1)NC(=O)[C@H](Cc1ccc(O)cc1)NC(=O)[C@H](C)NC(=O)[C@H](Cc1ccccc1)NC(=O)[C@H](Cc1ccc(O)cc1)NC(=O)[C@@H](N)Cc1ccccc1)C(=O)N1CCC[C@H]1C(=O)NCC(=O)N[C@@H](CC(C)C)C(=O)N[C@@H](Cc1ccccc1)C(=O)N[C@@H](Cc1ccc(O)cc1)C(=O)N[C@@H](Cc1ccccc1)C(=O)O` [BHD44] (H-FYFAYHPNIPGLFYF-OH) here?
Answer: preliminarily selected

Question: What about the AMPK activation [2] of the same molecule?
Answer: activated AMPK in a concentration-dependent manner

Question: With `CC[C@H](C)[C@H](NC(=O)[C@H](CC(N)=O)NC(=O)[C@@H]1CCCN1C(=O)[C@H](Cc1c[nH]cn1)NC(=O)[C@H](Cc1ccc(O)cc1)NC(=O)[C@H](C)NC(=O)[C@H](Cc1ccccc1)NC(=O)[C@H](Cc1ccc(O)cc1)NC(=O)[C@@H](N)Cc1c[nH]c2ccccc12)C(=O)N1CCC[C@H]1C(=O)NCC(=O)N[C@@H](CC(C)C)C(=O)N[C@@H](Cc1c[nH]c2ccccc12)C(=O)N[C@@H](Cc1ccc(O)cc1)C(=O)N[C@@H](Cc1ccccc1)C(=O)O` [BHD43] (H-WYFAYHPNIPGLWYF-OH) as the molecule, how does the “SPR screening of designed peptides, selection” value (AdipoR1-Δ88) read?
Answer: preliminarily selected

Question: What about the AMPK activation [2] of the same molecule?
Answer: activated AMPK in a concentration-dependent manner

Question: With `CCC[C@H](NC(=O)[C@@H]1CCCN1C(=O)[C@@H](NC(=O)[C@H](N)CC(N)=O)[C@@H](C)CC)C(=O)N[C@@H](CC(C)C)C(=O)N[C@@H](Cc1ccc(O)cc1)C(=O)N[C@H](CO)C(=O)N[C@@H](Cc1ccccc1)C(=O)N[C@@H](C)C(=O)N[C@H](CO)C(N)=O` [ADP355, reference compound] (H-[dN]IP[Nva]LY[dS]FA[dS]-NH2) as the molecule, how does the cellular efficacy (AdipoRs) read?
Answer: nano molar concentration

Question: What about the Kd (AdipoR1-Δ88; SPR, AdipoR1-Δ88 amine-coupled on CM5 chip, 1 to 100 μM peptide, 4°C, 20 mM HEPES pH7.4, 0.025% DDM, 0.0001% CHS, from saturation curves with responses at equilibrium state) of the same molecule?
Answer: > 100 µM

Question: What about the SPR response (AdipoR1-Δ88; SPR, AdipoR1-Δ88 on CM5 chip, serial concentrations 1 to 100 μM, in words) of the same molecule?
Answer: very weak SPR responses except 100 μM concentration

B1: BHD44 (peptide)
peptide: FYFAYHPNIPGLFYF
notes: designed 15-mer, adiponectin-mimetic; free N- and C-termini as printed (NH2-...-COOH); source: synthetic peptide (AnyGen Ltd.)
Question: With B1 as the molecule, how does the Kd [3] read?
Answer: 4.3 µM

B2: BHD1028 (peptide)
peptide: YYFAYHPNIPGLYYF
notes: designed 15-mer, adiponectin-mimetic; free N- and C-termini as printed (NH2-...-COOH); also called BHD31; source: synthetic peptide (AnyGen Ltd.)
Question: For B2, which Kd [3] is on record?
Answer: 16 µM

B3: BHD43 (peptide)
peptide: WYFAYHPNIPGLWYF
notes: as for B1
Question: Which Kd [3] does the source give for B3 here?
Answer: 10 µM
